This is an account of results in patent US7001897B2, “1-methylcarbapenem derivatives” (Sankyo Company, Limited, priority 2000, dated 2006).

Values after ≈ are worked out from the molar mass of the structure shown.

In data set [1] the test system is Haemophilis influenzae strain 9787 (a strain producing β-lactamase). Briefly: In vitro antibacterial activity, agar plate dilution method. The format is cell-based. The note with it: C: Haemophilis influenzae strain 9787 (β-lactamase producing); agar plate dilution; read-out: Minimum Concentration to Inhibit Growth of the Employed Bacteria C. On the procedure: (§1) To assess the antibacterial activities of the compounds, the minimum concentrations (μg/ml) of the compounds to inhibit growth of various pathogenic bacteria were determined by agar plate dilution method. In this Table, the employed bacteria A, B, and C were as follow: • A: Staphylococcus aureus • B: Streptococcus pneumoniae • C: Haemophilis influenzae strain 9787 (a strain producing β-lactamase)

The subject of another data set is Staphylococcus aureus. Described as above. The class given is cell-based. The note with it: A: Staphylococcus aureus; agar plate dilution; read-out: Minimum Concentration to Inhibit Growth of the Employed Bacteria A. On the procedure:
as §1

Another data set has as its system Streptococcus pneumoniae. Described as above. The note with it: B: Streptococcus pneumoniae; agar plate dilution; read-out: Minimum Concentration to Inhibit Growth of the Employed Bacteria B. The class given is cell-based. On the procedure:
as §1

Data set [2] in a line: Pharmacokinetics, plasma concentration by bioassay after subcutaneous injection. The class given is in vivo. The settings on record: mouse, sc, mice (ddY, male), 20 mg/kg subcutaneous; for AUC: read-out: AUCall (area under the concentration-time curve in plasma); for Cmax: read-out: Cmax (maximal plasma concentration); for half-life: read-out: T1/2 (half-life in plasma concentration) (converted). On the procedure: The compounds of the present invention compound (20 mg/kg) was subcutaneously injected to mice (n=3, ddY, male, purchased from SLC Japan). The plasma concentration of the compound was determined by a bioassay method at 5, 15, and 30 min, and 1, 1.5, and 2 hr after administration. In the Table, Cmax, T1/2, and AUCall indicate the maximal plasma concentration, half-life in plasma concentration, and area under the concentration-time curve in plasma of the compound, respectively.

Data set [3] relates to S. pneumoniae 9605 (PRSP). The data set can be described thus: In vivo antibacterial activity, intraperitoneal infection of mice. The settings on record: Streptococcus pneumoniae, 168 h; male ddY mice, i.p. S. pneumoniae 9605 (PRSP), single subcutaneous treatment, Probit method from survival rates 7 days after infection. On the procedure:
Male ddY mice of 4 weeks old (purchased from SLC Japan) were intraperitoneally inoculated with S. pneumoniae 9605 (PRSP) at a volume of 0.2 ml (containing 5% mucin, 1-5×10^3 colony forming unit (cfu)/mouse). Immediately after the mice were infected, they were subcutaneously treated with the test compound singly at a volume of 0.1 ml. Seven mice were used per group. A solution of the test compound prepared by 2-step dilution was used for the experiment. ED50 values of the compounds were calculated by the Probit method from survival rates 7 days after infection.

With `C[C@@H](O)[C@H]1C(=O)N2C(C(=O)O)=C(SC3CN(c4nc(C(=O)N[C@H]5CCNC5)cs4)C3)[C@H](C)[C@H]12` [Example 57, (1R,5S,6S)-2-{1-[4-((3S)-pyrrolidin-3-ylcarbamoyl)-1,3-thiazol-2-yl]azetidin-3-yl}thio-6-[(R)-1-hydroxyethyl]-1-methylcarbapen-2-em-3-carboxylic acid], in data set [1], the MIC came out at 0.2 µg/mL (≈ 0.405 µM). Moreover, in the data set with Staphylococcus aureus, the MIC was determined as 0.025 µg/mL (≈ 0.0506 µM). For the same molecule, the MIC in the data set on Streptococcus pneumoniae turned out to be 0.2 µg/mL (≈ 0.405 µM). In data set [2], the AUC amounted to 45300 ng·h/mL, the Cmax amounted to 48200 ng/mL and the half-life was 22.8 min. For the same molecule, in data set [3], the ED50 (as a rule, the midpoint of the dose-response relation) was 0.855 mg/kg.

Turning to `C[C@@H](O)[C@H]1C(=O)N2C(C(=O)O)=C(SC3CN(c4nc(C(=O)N[C@@H]5CCNC5)cs4)C3)[C@H](C)[C@H]12` [Example 58, (1R,5S,6S)-2-{1-[4-((3R)-pyrrolidin-3-ylcarbamoyl)-1,3-thiazol-2-yl]azetidin-3-yl}thio-6-[(R)-1-hydroxyethyl]-1-methylcarbapen-2-em-3-carboxylic acid], the MIC in data set [1] worked out at 0.2 µg/mL (≈ 0.405 µM). For the same molecule, the MIC with Staphylococcus aureus is ≤ 0.012 µg/mL. Moreover, the MIC in the data set with Streptococcus pneumoniae is 0.2 µg/mL (≈ 0.405 µM). In addition, in data set [2], the AUC was 47400 ng·h/mL, the Cmax turned out to be 63900 ng/mL and the half-life is 24.6 min. Moreover, the ED50 in data set [3] came out at 0.899 mg/kg.

Turning to `C[C@@H](O)[C@H]1C(=O)N2C(C(=O)O)=C(SC3CN(c4nc(C(=O)NC5CNC5)cs4)C3)[C@H](C)[C@H]12` [Example 59, (1R,5S,6S)-2-{1-[4-(azetidin-3-ylcarbamoyl)-1,3-thiazol-2-yl]azetidin-3-yl}thio-6-[(R)-1-hydroxyethyl]-1-methylcarbapen-2-em-3-carboxylic acid], the MIC was 0.2 µg/mL (≈ 0.417 µM) in data set [1], ≤ 0.012 µg/mL with Staphylococcus aureus and 0.2 µg/mL (≈ 0.417 µM) in the data set on Streptococcus pneumoniae. The same molecule gave an ED50 in data set [3] of 1.08 mg/kg.

For the molecule `C[C@@H](O)[C@H]1C(=O)N2C(C(=O)O)=C(SC3CN(c4nc(C(=O)N5CCNCC5)cs4)C3)[C@H](C)[C@H]12` [Example 60, (1R,5S,6S)-2-{1-[4-(piperazine-1-carbonyl)-1,3-thiazol-2-yl]azetidin-3-yl}thio-6-[(R)-1-hydroxyethyl]-1-methylcarbapen-2-em-3-carboxylic acid], the MIC turned out to be 0.39 µg/mL (≈ 0.79 µM) in data set [1], 0.025 µg/mL (≈ 0.0506 µM) in the data set on Staphylococcus aureus and 0.39 µg/mL (≈ 0.79 µM) in the data set on Streptococcus pneumoniae. Also, the AUC in data set [2] amounted to 27900 ng·h/mL. The Cmax in data set [2] was found to be 46100 ng/mL. Moreover, the half-life in data set [2] was 18 min. For the same molecule, the ED50 in data set [3] was found to be 1.41 mg/kg.

As to `C[C@@H](O)[C@H]1C(=O)N2C(C(=O)O)=C(SC3CN(c4nc(C(=O)NCCN)cs4)C3)[C@H](C)[C@H]12` [Example 61, (1R,5S,6S)-2-{1-[4-((2-aminoethyl)carbamoyl)-1,3-thiazol-2-yl]azetidin-3-yl}thio-6-[(R)-1-hydroxyethyl]-1-methylcarbapen-2-em-3-carboxylic acid], the MIC was found to be 0.39 µg/mL (≈ 0.834 µM) in data set [1], 0.025 µg/mL (≈ 0.0535 µM) in the data set on Staphylococcus aureus and 0.2 µg/mL (≈ 0.428 µM) with Streptococcus pneumoniae. The ED50 in data set [3] was 1.79 mg/kg.

Regarding `C[C@@H](O)[C@H]1C(=O)N2C(C(=O)O)=C(SC3CN(c4nc(CN)cs4)C3)[C@H](C)[C@H]12` [Example 67, (1R,5S,6S)-2-[1-(4-aminomethyl-1,3-thiazol-2-yl)azetidin-3-yl]thio-6-[(R)-1-hydroxyethyl]-1-methylcarbapen-2-em-3-carboxylic acid], the values for the MIC (in data set [1]; in the data set on Staphylococcus aureus; in the data set on Streptococcus pneumoniae) were 0.2 µg/mL (≈ 0.487 µM), ≤ 0.012 µg/mL and 0.39 µg/mL (≈ 0.95 µM), respectively. Moreover, the AUC in data set [2] is 34100 ng·h/mL. The Cmax in data set [2] worked out at 40200 ng/mL. In data set [2], the half-life was 27 min. Further, the ED50 in data set [3] turned out to be 1.6 mg/kg.

Consider `C[C@@H](O)[C@H]1C(=O)N2C(C(=O)[O-])=C(SC3CN(c4nc(C(=O)N5CCOCC5)co4)C3)[C@H](C)[C@H]12.[Na+]` [Example 76, (1R,5S,6S)-2-[1-(4-morpholinocarbonyl-1,3-oxazol-2-yl)azetidin-3-yl]thio-6-[(R)-1-hydroxyethyl]-1-methylcarbapen-2-em-3-carboxylic acid sodium salt], for which the MIC in data set [1] worked out at 0.39 µg/mL. Besides, in the data set on Staphylococcus aureus, the MIC worked out at 0.05 µg/mL. The MIC in the data set with Streptococcus pneumoniae was 0.2 µg/mL. In data set [2], the AUC turned out to be 27900 ng·h/mL, the Cmax worked out at 52800 ng/mL and the half-life was 11.4 min. The molecule also displayed an ED50 in data set [3] of 0.534 mg/kg.
